| melting point | SMILES |
| --- | --- |
| 72 to 74 °C | COc1c(C)cccc1C(=N)N |
| 198 to 199 °C | CC1CCC(Nc2ccccc2)c2ncc(C(=O)O)c(=O)n21 (centres undefined) |
| 187 to 191 °C | O=C(Nc1cccc(C(F)(F)F)c1)Nc1ccc2c(c1)OC(F)(F)O2 |
| 108 to 110 °C | O=C(Oc1c(F)c(F)c(F)c(F)c1F)c1ccc(F)c(F)c1Nc1ccc(I)cc1Cl |
| 79 to 80 °C | Cc1ccccc1N=NC1=NCCS1 |
| 92 to 93 °C | CCn1c(=O)ccc2cnc(Nc3cccc(F)c3OC)nc21 |
| 66 to 67 °C | C#CCCCCOc1cc(C=O)ccc1OC |
| 112 to 113 °C | Cc1oc(-c2ccco2)nc1COc1ccc(CON=C(CCCCC(=O)O)c2ccccc2)cc1 |
| 175 to 178 °C | COC(=O)c1ccc(N(N)C(C)=O)c(N)c1 |
| 42 to 46 °C | Cn1ncc(Cl)c(NCCCCl)c1=O |
| 103 to 105 °C | COc1cc(OC)c2c(=O)[nH]c(-c3ccc(OCCN4CCCC4)c(-c4ccc(S(C)=O)cc4)n3)nc2c1 (centres undefined) |
| 88 to 91 °C | FC(F)(F)c1cccc(N2CCN(Cc3ccc4c(c3)NCCN4)CC2)c1 |
| 131 to 132 °C | O=C(O)CCCCCc1cncc2ccccc12 |
| 144 to 146 °C | NNc1nncc(-c2ccccc2)n1 |
| 168 to 170 °C | CCCCc1nc2c(N)nc3ccccc3c2n1CCOCCS(C)(=O)=O |
| 166 to 169 °C | Cc1nc2c(N)nc3ccccc3c2n1CCC(=O)N1CCOCC1 |
| 94 to 95 °C | COC(=O)NNC(=O)Cc1ccccc1 |
| 287 to 289 °C | N#Cc1cccc2c(O)c(C(=O)NCc3ccc(Cl)cc3)cnc12 |
| 133 to 135 °C | CCOc1ccc(-c2ccc3c(c2)C=C(C(=O)OC)CCN3C=O)cc1 |
| 51.2 to 53.6 °C | CCc1nn2c(-c3ccc(OC)cc3OC)cccc2c1N(CC)CCF |
| 150 to 152 °C | CCOCc1nc2c(N)nc3ccccc3c2n1CCCC1(C)OCCO1 |
| 120 to 122 °C | COc1ccc(NC(=O)c2csc(Br)c2OC)cc1N1CCN(C)CC1 |
| 161 to 162 °C | CC(C)C(=O)c1cn(Cc2c(F)cccc2F)c2sc(-c3ccc(NC(=O)C(C)CO)cc3)c(CN(C)Cc3ccccc3)c2c1=O (centres undefined) |
| 172 to 174 °C | CN(C)CC(O)c1c(-c2ccc3ccccc3c2)[nH]c2ccccc12 (centres undefined) |
| 149 °C | COc1ccc(CCN(C)c2cc(C)sc2CO)cc1OC |

| melting point | SMILES |
| --- | --- |
| 123 to 125 °C | CCOC(=O)C#CCOCC1=C(C(=O)OCC)C(c2cccc(Cl)c2Cl)C(C(=O)OC)=C(C)N1 (centres undefined) |
| 142 to 145 °C | CS(=O)(=O)N(Cc1cncnc1)c1ccc(F)cc1F |
| 107 to 109 °C | C[C@@H](NC(=O)[C@@H](NC(=O)[C@H](CCCc1ccc(-c2ccccc2)c(Cl)c1)CC(=O)NO)C(C)(C)C)c1ccccc1 |
| 125 to 127 °C | CCN1C(=O)C(C)(C)C(=O)N(C)c2cc(CN(C)Cc3ccccc3CN3C(=O)CCc4ccccc43)ccc21 |
| 160 to 162 °C | CC[C@H](NC(=O)OCC1c2ccccc2-c2ccccc21)[C@@H](O)C(=O)O |
| 65 to 66 °C | CCCCOc1c(NC(CC)CC)c(=O)c1=O |
| 186 to 188 °C | OCC1(CO)COC(c2nc(-c3ccccc3)c(-c3ccccc3)n2Cc2ccccc2)OC1 |
| > 330 °C | O=c1c2c(n(-c3ccccc3)c3c1CCc1cc(O)ccc1-3)NCCC2 |
| 184 to 185 °C | O=C(N[C@H](Cc1ccc(C(F)(F)F)cc1)[C@@H](O)c1ccc(Oc2ccccc2)cc1)c1ccc(F)c2ccccc12 (racemic) |
| 225 to 230 °C | Nc1ncnc2c1ncn2[C@@H]1O/C(=C\F)[C@@H](O)[C@H]1O |
| 65 to 67 °C | CCCCCCCCCCCCCCCO/N=C(\CCCCCCCCCCCCCCC)CC(=O)O |
| 230 °C | FC(F)(F)c1cc(Nc2cc[nH]n2)nc(-c2cccnc2)n1 |
| 187 to 188 °C | COc1cc(OC(C)(C)C(=O)O)c(C=O)cc1-c1cccs1 |
| 156 to 157 °C | O=C1CCN(Cc2ccc(O)cc2)CC1C1c2ccccc2C=Cc2ccccc21 (centres undefined) |
| 123 to 125 °C | CCn1c(=O)n(CCCCC(C)=O)c(=O)c2c1ncn2Cc1ccccc1 |
| 71 to 73 °C | COc1cc(OC)nc(C(=O)c2cccnc2C(=O)O)n1 |
| 111 to 113 °C | COc1ccc([C@@H]2Sc3ccccc3N(CCN(C)C)C(=O)[C@@H]2OC(=O)Nc2cccc(F)c2)cc1 (relative stereo) |
| 220 to 223 °C | O=C(O)C(=O)Nc1cc(-c2ccc(-c3cccc4c3oc3ccccc34)cc2)cn(Cc2ccccc2)c1=O |
| 135 to 139 °C | CN1CCN(CCCOc2ccc(Nc3ncc4ccc(-c5cccnc5)n4n3)cc2)CC1 |
| 132 to 134 °C | Cc1nc(N)nc(N)c1OCCCOc1ccccc1C(F)(F)F |
| 185 to 190 °C | C=C1CC2C3CCC4=CC(=O)C=CC4(C)C3=CCC2(C)C1(O)C(C)=O (centres undefined) |
| 164 °C | CC(=O)N=c1[nH]c2ccccc2n1C1CCNCC1 |
| 167 to 168 °C | Cc1cc(NCC(O)CO)c2ccccc2n1 (centres undefined) |
| 178 to 179 °C | COC(=O)C(Cc1ccc(Cl)cc1)NC(=O)C1CCC(CNC(=O)OC(C)(C)C)CC1 (centres undefined) |
| 204 °C | N#Cc1ccc(N2CC(C(=O)O)OC2=O)cc1 (centres undefined) |

| melting point | SMILES |
| --- | --- |
| 145 °C | CCOc1ccc(CCNC(=O)C(F)(F)F)cc1S(=O)(=O)N=CN(C)C |
| 76 to 78 °C | CCOC(=O)c1cc(OC(C)=O)c(OC(C)=O)c(OC(C)=O)c1 |
| 70 to 90 °C | CC(=O)OC1CSC(Oc2cc(-c3ccc(F)nc3)cnc2Cl)C(OC(C)=O)C1OC(C)=O (centres undefined) |
| > 250 °C | Cn1c(C(F)(F)F)cc(=O)n(-c2ccc3snc(-c4nc5ccccc5[nH]c4=O)c3c2)c1=O |
| 151 °C | O=[N+]([O-])c1cc(F)ccc1OC1CCC(O)CC1 (centres undefined) |
| 138 to 140 °C | CC(C)(C)OC(=O)NC(Cc1c[nH]c2ccccc12)C(=O)CCc1cc(C(F)(F)F)cc(C(F)(F)F)c1 (centres undefined) |
| 177 to 178 °C | CCOC(=O)C1=C(N)NC(CF)=C(C(=O)OCC)C1c1cccc([N+](=O)[O-])c1 (centres undefined) |
| 79 to 81 °C | CCOC(=O)C(C)(C)Oc1ccc(OCc2nc(-c3ccc(C(C)(C)C)cc3)no2)cc1 |
| 99 to 101 °C | C(=NC(c1ccccc1)c1ccccc1)c1ccccc1 |
| 152 to 153 °C | CS(=O)c1nnc(-c2ccc3ncn(-c4ccc(OC(F)(F)F)cc4)c3c2)o1 (centres undefined) |
| 191 to 195 °C | Cc1ccc2ccccc2c1N(C(=O)CO)C1CCOC1=O (centres undefined) |
| 183 to 184 °C | COc1cccc(OCCCc2cn(-c3ccc(C(F)(F)F)cn3)nc2C(C)C)c1CC(=O)O |
| 130 °C | CC(C)OC(=O)c1ccc(OCC(=NO)c2ccc3c(c2)C(C)(C)CCC3(C)C)cc1O |
| 180 to 181 °C | COc1cc(COc2nn(-c3ccccc3)cc2C=O)ccc1OCc1nc(N2CCCCC2)sc1C |
| 204 to 206 °C | CCCCc1nc([N+](=O)[O-])c(CO)n1Cc1ccc(-c2ccccc2C(=O)O)cc1 |
| 245 °C | COc1cc(N2C(=O)c3ccccc3C2=O)c(F)cc1C#N |
| 142 to 144 °C | CCc1nn(Cc2cc(O)n[nH]2)c(CC)c1Oc1cc(Cl)cc(Cl)c1 |
| 85 °C | CC(C)(Cc1ccc(Cl)cc1Cl)C(=O)Cn1cncn1 |
| 270 °C | Cn1nc(-c2cnc(N)nc2-c2cccs2)ccc1=O |
| 290 to 291 °C | Cc1nc(Nc2ccccc2)sc1-c1ccnc(Nc2ccc(N3CCOCC3)cc2)n1 |
| 141 to 142 °C | c1cc2[nH]ncc2cc1OC1CCCC1 |
| 138 to 140 °C | CN(C)Cc1ccccc1C1(c2ccc(Cl)cc2)OC(=O)c2ccccc21 (centres undefined) |
| 72 °C | COc1cc(C)c(C(=O)c2c(OC)ccc3ccccc23)c(OC)c1OC |
| 115 to 117 °C | CCOC(=O)N(c1ccccc1)c1cc(Cl)ccc1-n1nc(C(=O)O)nc1CCl |
| 173 to 174 °C | O=[N+]([O-])c1ccc(C2CCN(c3ccncc3)CC2)cc1 |

| melting point | SMILES |
| --- | --- |
| 81 to 82 °C | COC(=O)C(NC(C)=O)C(=O)OCCCl (centres undefined) |
| > 250 °C | O=C1N=NC(=O)c2c1[nH]c1cc(I)ccc21 |
| 128 to 130 °C | CCCCN(CCCC)CCNC(=O)c1cccc(NC(=O)N2CCc3cc(SC)c(C(F)(F)F)cc32)c1 |
| 48 to 50 °C | CCCCCCCCCCCCCCCCCCOc1cc(OCCCOc2cccc(Br)c2)cc(N(CC(=O)OC)CC(=O)OC)c1 |
| 252 °C | Cc1cccc(-n2nc(C)c3c(=O)c4ccccc4[nH]c32)n1 |
| 148 to 150 °C | CCc1[nH]n(C2CCCC2)c2nc(Cc3cccc(OC)c3)nc(=O)c1-2 |
| 52 to 54 °C | COC(=O)Cc1ccc(C#N)cc1C |
| 151 to 152 °C | OCc1c(CO)c2sc3ccccc3n2c1-c1ccc(Cl)cc1 |
| 93 to 101 °C | C[C@@H](NC(=O)c1cncc(-c2ccc(Cl)cc2)c1)[C@](O)(Cn1cncn1)c1ccc(F)cc1F |
| 220 to 222 °C | Cc1nc(-n2cnn(CC3CC3(F)F)c2=O)sc1C(=O)O (centres undefined) |
| 184 to 185 °C | Cc1cc2oc(=O)c3c(c2cc1Cl)CCNC3 |
| 122 to 124 °C | O=C(O)CCCCc1cn(-c2cccnc2)c2ccccc12 |
| 183 to 184 °C | COCc1nnc(-c2cccnc2)n1-c1c(Cl)c(C)cc2nc(OC)c(OC)nc12 |
| 168 to 170 °C | CCOc1cc2ncc(C#N)c(Nc3ccccc3)c2cc1OCC |
| 228 to 229 °C | Nc1nnc(-c2ccc(Cl)c(C(F)(F)F)c2)c(N)n1 |
| 87 to 89 °C | Cc1cc(-c2ccc(-c3ccco3)cc2)cc(S(N)(=O)=O)c1-n1ccc(C(F)(F)F)n1 |
| 98.9 to 101 °C | CCC(=O)Nc1ccc2[nH]cc(C3CCN(C)CC3)c2n1 |
| 60 to 62 °C | CCCCCCCCNc1nc(C=O)cs1 |
| 188 to 190 °C | CCOC(=O)Nc1ccc(-n2ccc(C#N)c2)c(F)c1 |
| 76.4 to 77.7 °C | OCCCON=Cc1cn(Cc2ccccc2)c2ccccc12 |
| 198 to 200 °C | CC(C)(C)OC(=O)C(CCC(N)=O)N1Cc2c(O)cccc2C1=O (centres undefined) |
| 162 °C | CN(C)CCC1Cc2ccccc2C(C)(O)c2ccccc21 (centres undefined) |
| 112 to 113 °C | CN(C(=O)c1ccccc1-c1ccc(F)cc1)C1N(C)C(c2ccc(F)cc2)=NC1(C(F)(F)F)C(F)(F)F (centres undefined) |

| SMILES | melting point |
| --- | --- |
| CC12CCC3C(CC(O)C4(O)CC=CCC34C)C1CCC2=O (centres undefined) | 183 to 186 °C |
